Drawing on US12421253B2 (Mirati Therapeutics, Inc., priority 2020, dated 2025), this text covers IC50 for 13 compounds.

The target of one experiment is KRas^Q61H (Homo sapiens, UniProt P01116, Q61H). Briefly: biochemical.
A further experiment deals with T1, KRas^G12R (Homo sapiens, UniProt P01116, G12R).
T1 construct: […]; biotin (biotinylated); purchased Accelegan Inc
The experiment in a line: KRas binding assay (TR-FRET displacement of Cy5 labelled tracer).

The target in the next experiment is T2, KRas^G12S (Homo sapiens, UniProt P01116, G12S).
T2 construct: […]; biotin (biotinylated); purchased Accelegan Inc
The experiment is described as above.

A further experiment has as its target T3, KRas^WT (Homo sapiens, UniProt P01116).
T3 construct: […]; biotin (biotinylated); purchased Accelegan Inc
The experiment is described as above.

The target in a further experiment is T4, KRas^G12D (Homo sapiens, UniProt P01116, G12D).
T4 construct: […]; biotin (biotinylated); purchased Accelegan Inc
Described as above.

In the next experiment the target is KRas^G12C (Homo sapiens, UniProt P01116, G12C). Briefly: biochemical.
Another experiment has as its target T5, KRas^G12A (Homo sapiens, UniProt P01116, G12A).
T5 construct: […]; biotin (biotinylated); purchased Accelegan Inc
Briefly: KRas binding assay (TR-FRET displacement of Cy5 labelled tracer).

For the next experiment, the target named is T6, KRas^G12V (Homo sapiens, UniProt P01116, G12V).
T6 construct: […]; biotin (biotinylated); purchased Accelegan Inc
Described as above.

The target of another experiment is KRas^G13D (Homo sapiens, UniProt P01116, G13D). Briefly: biochemical.
Sequence of KRas^G13D (P01116 1-169 isoform P01116-2 G13D): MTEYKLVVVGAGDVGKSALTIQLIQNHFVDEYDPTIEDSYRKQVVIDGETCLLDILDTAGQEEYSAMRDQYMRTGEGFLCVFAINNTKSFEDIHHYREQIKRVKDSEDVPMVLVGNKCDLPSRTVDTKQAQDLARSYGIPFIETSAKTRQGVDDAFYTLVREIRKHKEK

T3 sequence (P01116 1-169 isoform P01116-2): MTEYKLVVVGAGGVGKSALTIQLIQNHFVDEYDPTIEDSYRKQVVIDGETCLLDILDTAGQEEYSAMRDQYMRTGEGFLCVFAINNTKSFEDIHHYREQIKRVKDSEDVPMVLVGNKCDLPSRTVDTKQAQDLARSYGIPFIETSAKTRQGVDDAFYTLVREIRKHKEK
Sequence of KRas^G12C (P01116 1-169 isoform P01116-2 G12C): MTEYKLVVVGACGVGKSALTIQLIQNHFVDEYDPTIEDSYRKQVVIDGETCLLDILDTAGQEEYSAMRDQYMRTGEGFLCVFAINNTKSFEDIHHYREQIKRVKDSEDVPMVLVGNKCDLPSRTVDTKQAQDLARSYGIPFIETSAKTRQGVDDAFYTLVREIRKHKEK
T5 sequence (P01116 1-169 isoform P01116-2 G12A): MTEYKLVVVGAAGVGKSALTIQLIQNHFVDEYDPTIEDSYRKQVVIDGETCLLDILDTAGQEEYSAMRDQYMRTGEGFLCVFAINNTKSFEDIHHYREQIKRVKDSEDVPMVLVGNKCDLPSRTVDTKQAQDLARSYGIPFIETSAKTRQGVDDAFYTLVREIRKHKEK
Sequence of KRas^Q61H (P01116 1-169 isoform P01116-2 Q61H): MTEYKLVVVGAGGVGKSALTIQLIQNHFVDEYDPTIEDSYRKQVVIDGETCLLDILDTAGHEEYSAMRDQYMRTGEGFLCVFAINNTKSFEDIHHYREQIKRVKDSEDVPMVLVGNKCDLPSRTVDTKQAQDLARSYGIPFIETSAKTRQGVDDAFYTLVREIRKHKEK
T4 sequence (P01116 1-169 isoform P01116-2 G12D): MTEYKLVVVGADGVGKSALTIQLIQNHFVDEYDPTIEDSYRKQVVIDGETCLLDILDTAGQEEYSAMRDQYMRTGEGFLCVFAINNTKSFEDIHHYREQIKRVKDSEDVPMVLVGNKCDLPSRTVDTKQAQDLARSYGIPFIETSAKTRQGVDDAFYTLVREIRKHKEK
T6 sequence (P01116 1-169 isoform P01116-2 G12V): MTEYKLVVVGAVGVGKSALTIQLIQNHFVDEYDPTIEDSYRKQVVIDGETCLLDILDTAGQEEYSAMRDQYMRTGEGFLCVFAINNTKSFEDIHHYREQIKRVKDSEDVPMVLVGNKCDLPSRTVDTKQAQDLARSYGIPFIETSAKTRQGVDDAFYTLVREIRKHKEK
T2 sequence (P01116 1-169 isoform P01116-2 G12S): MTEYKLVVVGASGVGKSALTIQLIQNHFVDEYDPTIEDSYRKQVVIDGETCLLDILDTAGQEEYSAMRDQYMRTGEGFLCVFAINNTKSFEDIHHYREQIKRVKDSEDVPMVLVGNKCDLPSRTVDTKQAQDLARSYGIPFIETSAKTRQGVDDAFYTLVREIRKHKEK
T1 sequence (P01116 1-169 isoform P01116-2 G12R): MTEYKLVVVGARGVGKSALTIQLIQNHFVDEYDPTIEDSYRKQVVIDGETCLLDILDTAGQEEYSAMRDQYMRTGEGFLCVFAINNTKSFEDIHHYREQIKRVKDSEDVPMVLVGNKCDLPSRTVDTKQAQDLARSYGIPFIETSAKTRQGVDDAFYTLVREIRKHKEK
Description for KRas^G12A: (§1) The ability of a compound to bind to KRas was measured using a TR-FRET displacement assay. […] After a 60-minute incubation at room temperature, the reaction was measured using a BMG LABTECH CLARIO star Plus via TR-FRET. […] The POC values were fit to a 4-parameter IC50 equation and the IC50 value reported.
Description for KRas^G12C: as §1
Description for KRas^G12D: as §1
Description for KRas^G12R: as §1
Description for KRas^G12S: as §1
Description for KRas^G12V: as §1
Description for KRas^G13D: as §1
Description for KRas^Q61H: as §1
Description for KRas^WT: as §1

With `CCc1cccc2cccc(N3CCc4c(nc(OCC56CCCN5CCC6)nc4N4CCOCC(n5cccn5)C4)C3)c12` (stereo not drawn) [Example 9, 4-(7-(8-ethylnaphthalen-1-yl)-2-((tetrahydro-1H-pyrrolizin-7a(5H)-yl)methoxy)-5,6,7,8-tetrahydropyrido[3,4-d]pyrimidin-4-yl)-6-(1H-pyrazol-1-yl)-1,4-oxazepane], the IC50 against KRas^Q61H was 76 nM; at KRas^G12R it was 168 nM; on KRas^G12S it was 154 nM; at KRas^WT, 54 nM; on KRas^G12D it was 192 nM; on KRas^G12C it was 115 nM. Further, the IC50 at KRas^G12A stood at 128 nM; on KRas^G12V, 165 nM; against KRas^G13D, 66 nM.

Turning to `CCc1cccc2cccc(N3CCc4c(nc(OCC56CCCN5CCC6)nc4N4CCCn5nc(N)cc5C4)C3)c12` [Example 10, 5-(7-(8-ethylnaphthalen-1-yl)-2-((tetrahydro-1H-pyrrolizin-7a(5H)-yl)methoxy)-5,6,7,8-tetrahydropyrido[3,4-d]pyrimidin-4-yl)-5,6,7,8-tetrahydro-4H-pyrazolo[1,5-a][1,4]diazepin-2-amine], the IC50 against KRas^Q61H came to 291 nM; on KRas^G12R it was 74 nM; on KRas^G12S, 101 nM; at KRas^WT it was 171 nM; on KRas^G12D, 67 nM; on KRas^G12C, 81 nM. Further, the IC50 at KRas^G12A was determined as 169 nM; on KRas^G12V, 81 nM; against KRas^G13D, 375 nM.

Consider `CCc1cccc2cccc(N3CCc4c(nc(OCC56CCCN5CCC6)nc4N4C[C@@H]5C(=O)NC(=O)[C@@H]5C4)C3)c12` [Example 11, (3aR,6aS)-5-(7-(8-ethylnaphthalen-1-yl)-2-((tetrahydro-1H-pyrrolizin-7a(5H)-yl)methoxy)-5,6,7,8-tetrahydropyrido[3,4-d]pyrimidin-4-yl)tetrahydropyrrolo[3,4-c]pyrrole-1,3(2H,3aH)-dione], for which the IC50 came to 50 nM at KRas^Q61H; 42 nM on KRas^G12R; 15 nM on KRas^G12S; 51 nM at KRas^WT; 22 nM at KRas^G12D; 41 nM against KRas^G12C. Besides, the IC50 at KRas^G12A turned out to be 45 nM; on KRas^G12V, 18 nM; against KRas^G13D, 42 nM.

With `CCc1cccc2cccc(N3CCc4c(nc(OCC56CCCN5CCC6)nc4N4CCCC5(C4)NC(=O)NC5=O)C3)c12` (stereo not drawn) [Example 12, 7-(7-(8-ethylnaphthalen-1-yl)-2-((tetrahydro-1H-pyrrolizin-7a(5H)-yl)methoxy)-5,6,7,8-tetrahydropyrido[3,4-d]pyrimidin-4-yl)-1,3,7-triazaspiro[4.5]decane-2,4-dione], the concentration for half-maximal inhibition (IC50) was no more than 2 nM against KRas^Q61H; no more than 2 nM at KRas^G12R; no more than 2 nM at KRas^G12S; no more than 2 nM at KRas^WT; 3 nM at KRas^G12D; no more than 2 nM against KRas^G12C. The IC50 on KRas^G12A, on KRas^G12V and on KRas^G13D was no more than 2 nM in each case.

Take `CCc1cccc2cccc(N3CCc4c(nc(OCC56CCCN5CCC6)nc4N4CCC(O)C(CO)CC4)C3)c12` (stereo not drawn) [Example 13, 1-(7-(8-ethylnaphthalen-1-yl)-2-((tetrahydro-1H-pyrrolizin-7a(5H)-yl)methoxy)-5,6,7,8-tetrahydropyrido[3,4-d]pyrimidin-4-yl)-5-(hydroxymethyl)azepan-4-ol]: the 50% inhibitory concentration (IC50) at KRas^Q61H was determined as 57 nM; at KRas^G12R, 99 nM; at KRas^G12S, 70 nM; on KRas^WT it was 41 nM; on KRas^G12D, 290 nM; against KRas^G12C, 82 nM. Besides, the values for the 50% inhibitory concentration (IC50) at KRas^G12A, on KRas^G12V and at KRas^G13D were 51 nM, 73 nM and 40 nM, respectively.

On to `CCc1cccc2cccc(N3CCc4c(nc(OCC56CCCN5CCC6)nc4N4CCCCCC(S(C)(=O)=O)C4)C3)c12` (stereo not drawn) [Example 14, 7-(8-ethylnaphthalen-1-yl)-4-(3-(methylsulfonyl)azocan-1-yl)-2-((tetrahydro-1H-pyrrolizin-7a(5H)-yl)methoxy)-5,6,7,8-tetrahydropyrido[3,4-d]pyrimidine], for which the IC50 is 135 nM against KRas^Q61H; 233 nM at KRas^G12R; 171 nM at KRas^G12S; 119 nM on KRas^WT; 256 nM on KRas^G12D; 173 nM against KRas^G12C. Further, the IC50 turned out to be 145 nM at KRas^G12A, 112 nM on KRas^G12V and 118 nM at KRas^G13D.

`CCc1cccc2cccc(N3CCc4c(nc(OCC56CCCN5CCC6)nc4N4CCCC5(CC(=O)N5)C4)C3)c12` (stereo not drawn) [Example 16, 6-(7-(8-ethylnaphthalen-1-yl)-2-((hexahydro-1H-pyrrolizin-7a-yl)methoxy)-5,6,7,8-tetrahydropyrido[3,4-d]pyrimidin-4-yl)-1,6-diazaspiro[3.5]nonan-2-one]: the concentration for half-maximal inhibition (IC50) on KRas^Q61H was determined as 55 nM; on KRas^G12R, 28 nM; at KRas^G12S, 45 nM; on KRas^WT, 66 nM; on KRas^G12D it was 63 nM; against KRas^G12C, 37 nM. The IC50 amounted to 45 nM on KRas^G12A, 18 nM on KRas^G12V and 65 nM at KRas^G13D.

On to `CCc1cccc2cccc(N3CCc4c(nc(OCC56CCCN5CCC6)nc4N4CCOCC(C)(O)C4)C3)c12` (stereo not drawn) [Example 22, 4-(7-(8-ethylnaphthalen-1-yl)-2-((hexahydro-1H-pyrrolizin-7a-yl)methoxy)-5,6,7,8-tetrahydropyrido[3,4-d]pyrimidin-4-yl)-6-methyl-1,4-oxazepan-6-ol], for which the half-maximal inhibitory concentration (IC50) against KRas^Q61H turned out to be 95 nM; on KRas^G12R it was 123 nM; on KRas^G12S it was 89 nM; at KRas^WT it was 105 nM; at KRas^G12D, 68 nM; at KRas^G12C, 72 nM. Besides, the IC50 turned out to be 93 nM at KRas^G12A, 71 nM on KRas^G12V and 101 nM against KRas^G13D.

With `CCc1cccc2cccc(N3CCc4c(nc(OCC56CCCN5CCC6)nc4NCc4ccc5nncn5c4)C3)c12` [Example 39, N-([1,2,4]triazolo[4,3-a]pyridin-6-ylmethyl)-7-(8-ethylnaphthalen-1-yl)-2-((hexahydro-1H-pyrrolizin-7a-yl)methoxy)-5,6,7,8-tetrahydropyrido[3,4-d]pyrimidin-4-amine], the IC50 amounted to 1640 nM against KRas^Q61H; 239 nM on KRas^G12R; 592 nM on KRas^G12S; 1370 nM on KRas^WT; 7110 nM at KRas^G12D; 317 nM against KRas^G12C. The IC50 on KRas^G12A came to 425 nM; on KRas^G12V it was 221 nM; at KRas^G13D, 1530 nM.

For the compound `CCc1cccc2cccc(N3CCc4c(nc(OCC56CCCN5CCC6)nc4N4CC5CC(O)CC4C5)C3)c12` (stereo not drawn) [Example 41, 6-(7-(8-ethylnaphthalen-1-yl)-2-((hexahydro-1H-pyrrolizin-7a-yl)methoxy)-5,6,7,8-tetrahydropyrido[3,4-d]pyrimidin-4-yl)-6-azabicyclo[3.2.1]octan-3-ol], the IC50 worked out at 685 nM at KRas^Q61H; 245 nM on KRas^G12R; 255 nM at KRas^G12S; 543 nM on KRas^WT; 1300 nM at KRas^G12D; 520 nM at KRas^G12C. For the same compound, the IC50 on KRas^G12A came to 452 nM; on KRas^G12V, 206 nM; on KRas^G13D, 583 nM.

In the case of `CCc1cccc2cccc(N3CCc4c(nc(OCC56CCCN5CCC6)nc4N4CCCC(O)(C(F)F)C4)C3)c12` (stereo not drawn) [Example 44, 3-(difluoromethyl)-1-(7-(8-ethylnaphthalen-1-yl)-2-((hexahydro-1H-pyrrolizin-7a-yl)methoxy)-5,6,7,8-tetrahydropyrido[3,4-d]pyrimidin-4-yl)piperidin-3-ol], the IC50 against KRas^Q61H worked out at 226 nM; on KRas^G12R, 308 nM; on KRas^G12S it was 202 nM; at KRas^WT it was 191 nM; on KRas^G12D, 162 nM; against KRas^G12C, 232 nM. Further, the results for the IC50 at KRas^G12A, at KRas^G12V and against KRas^G13D were 202 nM, 200 nM and 163 nM, respectively.

Turning to `CCc1cccc2cccc(N3CCc4c(nc(OCC56CCCN5CCC6)nc4N4CCC(c5[nH]ncc5N)C4)C3)c12` (stereo not drawn) [Example 46, 5-(1-(7-(8-ethylnaphthalen-1-yl)-2-((hexahydro-1H-pyrrolizin-7a-yl)methoxy)-5,6,7,8-tetrahydropyrido[3,4-d]pyrimidin-4-yl)pyrrolidin-3-yl)-1H-pyrazol-4-amine], the IC50 turned out to be 2230 nM against KRas^Q61H; 277 nM on KRas^G12R; 611 nM at KRas^G12S; 1820 nM at KRas^WT; 6750 nM at KRas^G12D; 401 nM on KRas^G12C. Moreover, the IC50 on KRas^G12A was determined as 448 nM; on KRas^G12V, 232 nM; against KRas^G13D, 2860 nM.

For `CCc1cccc2cccc(N3CCc4c(nc(OCC56CCCN5CCC6)nc4N4CCCCCC4)C3)c12` [Example 49, 4-(azepan-1-yl)-7-(8-ethylnaphthalen-1-yl)-2-((hexahydro-1H-pyrrolizin-7a-yl)methoxy)-5,6,7,8-tetrahydropyrido[3,4-d]pyrimidine], the half-maximal inhibitory concentration (IC50) is 703 nM on KRas^Q61H; 167 nM at KRas^G12R; 364 nM at KRas^G12S; 579 nM on KRas^WT; 465 nM on KRas^G12D; 273 nM on KRas^G12C. Also, the IC50 on KRas^G12A stood at 317 nM; at KRas^G12V, 184 nM; at KRas^G13D, 662 nM.
